The source of these data is PMC4912613, “A broad analysis of resistance development in the malaria parasite” (Nature Communications, 2016).

Data set [1] concerns GNF449-R2 (PfATP4 I203L and P990R, parent Dd2). Briefly: Cross-resistance EC50 assay, GNF449-R2. Format: cell-based. To be noted: Plasmodium falciparum, SYBR green 72 hour assay, asynchronized parasites, 96-well or 1536-well format. The text has this: (§1) To evaluate potential overlapping activity against known antimalarial drug targets, we performed dose-response studies with each compound against our assembled set of drug-resistant lines and their corresponding parents, in an asexual blood stage proliferation assay (Table 1). Comparisons were made to the drug-sensitive strain 3D7 when a parent was unavailable (TM90C2A, W2 and Dd2). As laboratories conducted EC50 assays with different strains and protocols, all comparisons were made between assays from the same laboratory and under the same assay conditions. Compounds displaying >5-fold EC50 shifts relative to the parent or sensitive strain were flagged as having potentially non-novel targets. Average fold shifts per strain ranged from 0.82 to 2.34, with a median of 1.23 indicating there was not common resistance to any one resistant clone. No resistance patterns were observed when classifying the compounds based on chemical structure, but this was not surprising given the diversity of compounds chosen. On the other hand, given that these confirmed compounds were derived from larger unconfirmed hit lists to which some filtration criteria may have been applied (for example, elimination of obvious dihydrofolate reductase inhibitors[32]), some[10][11][12][13] pre-existing bias may exist in the set. […]
(§2) Alternatively, a SYBR Green-based proliferation approach was used for the 72-h assay, as previously described. Briefly, a culture of either synchronized or asynchronous parasitized RBCs (0.3% parasitemia and 4% haematocrit) in screening medium (identical to supplemented medium above except no serum was added) was exposed to serial drug dilutions. Plates were incubated at 37 °C and gassed with 93% N2, 4% CO2 and 3% O2 for 72 h. Following incubation, 10 × SYBR Green I (Invitrogen; supplied in 10,000 × concentration) in lysis buffer ([…], 5 mM EDTA, 0.16% Saponin wt per vol and 1.6% Triton X vol per vol) was added to the wells and the plates were incubated overnight at room temperature before plate reading. EC50 assays were repeated three times, taking the average EC50 value from each assay set, and removing any outliers using a single iteration of Grubbs' test, eliminating values with z-scores above the critical z-value (α=0.05). The raw EC50 values for synchronized parasites assayed in a 384-well format are listed in Supplementary Data 4. The raw EC50 values for asynchronous parasites assayed in a 96 or 1536-well format are listed in Supplementary Data 5.
(§3) EC50 values for each strain were compared with those of the corresponding parent strain to determine fold-shift changes and identify resistance. To minimize the cause variance between assays, all comparisons were conducted between strains assayed under identical conditions. A one-way ANOVA followed by a Dunnet's post-test was conducted in GraphPad Prism to identify significant changes between the parent and resistant strain.

The subject of data set [2] is P. berghei exoerythrocytic forms. Briefly: Liver-stage P. berghei hepatocyte invasion and development assay (luminescence, HepG2). Type of data set: cell-based, Plasmodium berghei. To be noted: for EC50: Plasmodium berghei, HepG2, 48 h, P. berghei sporozoites, read-out: Liver Stage EC50; for EC50 fold shift compared to asexual stage: Liver Stage EC50: liver stage EC50 / 3D7 EC50. An excerpt: (§4) As drugs that eliminate multiple stages of the parasite lifecycle will be critical components in global efforts to eliminate malaria, we were interested in knowing whether the compounds in our study had additional activities against either the liver and/or transmission stages of the parasite lifecycle. To determine this, we first evaluated the compounds in additional phenotypic assays. The first assay was a P. berghei hepatocyte invasion and development assay, which predicts causal prophylactic activity. Hepatocyte toxicity was additionally tested to identify false-positive activity in the liver stage due to host-cell toxicity. Assays were executed in duplicate using a 12-point EC50 curve at starting concentrations of 5 μM or 50 μM (Supplementary Table 1).
(§5) Liver-stage activity was determined by pretreating hepatic human cells (HepG2) for 2 h with compound in 1,536-well plates infected with freshly dissected P. berghei sporozoites. After 48 h of incubation, the viability of P. berghei exoerythrocytic forms was measured by luminescence reaction light output using BrightGlo (Promega). Varying levels of compound concentration were used (5 μM or 50 μM) due to the stock concentration supplied.

In the next data set the test system is P. falciparum strain 3D7. The data set can be described thus: Asexual blood stage 3H-hypoxanthine incorporation assay, 3D7. Format: cell-based, Plasmodium falciparum. To be noted: Plasmodium falciparum, 3D7, asexual stage, P. falciparum 3D7; read-out: 3D7 EC50. The method, then: (§6) The 48-h assay was carried out in a 96-well format following standard methods using the ^3H-hypoxanthine incorporation assay. The raw EC50 values corresponding to this assay can be found in Supplementary Data 3. Briefly, this assay relies on the parasite incorporation of labelled hypoxanthine that is proportional to P. falciparum growth. A culture of parasitized RBCs (0.5% parasitemia with a percentage of ring stage higher than 70% of total parasitemia, 2.0% haematocrit) in RPMI-1640, […] and 5 μM hypoxanthine was exposed to drug serial dilutions. Plates were incubated for 24 h at 37 °C, 5% CO2, 5% O2 and 90% N2. After 24 h of incubation, ^3H-hypoxanthine was added and plates were incubated for an additional 24-h period. After that, parasites were harvested on a glass fibre filter using a TOMTEC Cell Harvester 96. Filters were dried and melt-on scintillator sheets were used to determine the incorporation of ^3H-hypoxanthine. Radioactivity was measured using a microbeta counter. Data were normalized using the incorporation of the positive (parasitized RBCs without drug) and negative (same culture with artesunate at 2 μM) controls. All assays were conducted in triplicate using three independently grown cultures, and EC50 values were determined using the XLfit add-in module for Excel (version 2.3.1) from Grafit (version 5.3.1.3), where parameter h is the assay hill slope, x is the compound concentration and y is the inhibition of growth effect. The XLfit equation is: […]

Data set [3] relates to CYTbQi (cytb G33A, parent Dd2). The data set can be described thus: Cross-resistance EC50 assay, CYTbQi. Format: cell-based. Conditions: Plasmodium falciparum, SYBR green 72 hour assay, synchronized parasites, 384-well format.
From the text: as §1, §2, §3

In a further data set the test system is HepG2. Briefly: Hepatocyte toxicity. Format: cell-based, human. Conditions: for Hepatocyte Toxicity: HepG2; for EC50 fold shift compared to asexual stage: Hepatocyte Toxicity: hepatocyte toxicity / 3D7 EC50; for Liver Stage / Hepatocyte Toxicity: toxicity fold shift for the liver stage (hepatocyte toxicity vs liver stage EC50).
From the text: as §4, §5

The subject of data set [4] is TM90C2A (DHFR, folate pathway; compared with 3D7). Briefly: Cross-resistance EC50 assay, TM90C2A. Type of data set: cell-based. Conditions: Plasmodium falciparum, 48 h, read-out: TM90C2A (3D7 Parent) Average EC50.
From the text: To evaluate potential overlapping activity against known antimalarial drug targets, we performed dose-response studies with each compound against our assembled set of drug-resistant lines and their corresponding parents, in an asexual blood stage proliferation assay (Table 1). Comparisons were made to the drug-sensitive strain 3D7 when a parent was unavailable (TM90C2A, W2 and Dd2). As laboratories conducted EC50 assays with different strains and protocols, all comparisons were made between assays from the same laboratory and under the same assay conditions. Compounds displaying >5-fold EC50 shifts relative to the parent or sensitive strain were flagged as having potentially non-novel targets. Average fold shifts per strain ranged from 0.82 to 2.34, with a median of 1.23 indicating there was not common resistance to any one resistant clone. No resistance patterns were observed when classifying the compounds based on chemical structure, but this was not surprising given the diversity of compounds chosen. On the other hand, given that these confirmed compounds were derived from larger unconfirmed hit lists to which some filtration criteria may have been applied (for example, elimination of obvious dihydrofolate reductase inhibitors[32]), some[10][11][12][13] pre-existing bias may exist in the set.
as §6, §3

A word on the EC50: it is the midpoint of the concentration-response curve. Regarding `CN(C)CCCNCc1ccc(-c2ccc(Cl)c(Cl)c2)o1` [MMV673964], the EC50 in data set [1] amounted to 1.05 µM; in data set [2], 8990 nM; in the data set on P. falciparum strain 3D7, 607 nM; in data set [3] (DD2, CYTbQi strain), 319 nM; in data set [4] it was 569 nM. The “EC50 fold shift compared to asexual stage: Liver Stage EC50” value (“EC50 fold shift … Liver Stage EC50” for short) in data set [2] is given as 14.81. The “Hepatocyte Toxicity” value in the data set with HepG2 stood at 19.83 µM. Further, in the data set with HepG2, the “EC50 fold shift compared to asexual stage: Hepatocyte Toxicity” value (shortened to “EC50 fold shift … Hepatocyte Toxicity”) is 32.67. In addition, in the data set with HepG2, the “Liver Stage / Hepatocyte Toxicity” value came out at 2.21.

Regarding `COc1ccc2c3c([nH]c2c1)[C@H](CO)N(C(C)=O)CC31CCN(C(=O)Nc2ccccc2F)CC1` [MMV673482], the EC50 in data set [1] was determined as 0.007 µM; in data set [3] (DD2, CYTbQi strain), 84 nM; in data set [4], 352 nM.

Regarding `CCCCCCCN(Cc1ccc(OC(C)(C)C(=O)OCC)cc1)C(=O)Nc1ccc(Cl)cc1OCC` [MMV021735], the EC50 in data set [1] is 1.78 µM; in data set [2], 2690 nM; in the data set with P. falciparum strain 3D7, 383 nM; in data set [3] (strain CYTbQi (Dd2 parent)) it was 223 nM; in data set [4] it was 891 nM. In data set [2], the “EC50 fold shift … Liver Stage EC50” value is listed as 7.03. In addition, the “Hepatocyte Toxicity” value in the data set on HepG2 is greater than 50 µM. Besides, the “EC50 fold shift … Hepatocyte Toxicity” value with HepG2 is recorded as greater than 130. In addition, the “Liver Stage / Hepatocyte Toxicity” value in the data set with HepG2 is greater than 18.

As to `FC(F)(F)c1cccc(Nc2nc3ccccc3nc2Nc2cccc(C(F)(F)F)c2)c1` [MMV665794], the EC50 in data set [1] was determined as 0.37 µM; in data set [2], 375 nM; in the data set on P. falciparum strain 3D7 it was 100 nM; in data set [3] (strain CYTbQi (Dd2 parent)) it was 128 nM; in data set [4], 73 nM. Moreover, the “Hepatocyte Toxicity” value in the data set with HepG2 was determined as 1.374 µM. The “Liver Stage / Hepatocyte Toxicity” value in the data set on HepG2 is 3.67.

With `Cc1c(C)n(Cc2ccc(F)cc2)c2ccc(C(=O)NCc3ccco3)cc12` [MMV008149], the EC50 is 1.36 µM in data set [1]; 882 nM in data set [2]; 770 nM in the data set with P. falciparum strain 3D7; 87 nM in data set [3] (strain CYTbQi (Dd2 parent)); 908 nM in data set [4]. The “EC50 fold shift … Liver Stage EC50” value in data set [2] is recorded as 1.15. For the same compound, the “Hepatocyte Toxicity” value with HepG2 is greater than 5 µM. For the same compound, the “EC50 fold shift … Hepatocyte Toxicity” value in the data set with HepG2 is reported as greater than 6.5. The “Liver Stage / Hepatocyte Toxicity” value in the data set with HepG2 is greater than 5.6.

Consider `COc1ccc(C(=O)C2CC2c2ccc(Cl)cc2)cc1` (stereo not shown) [MMV665924], for which the EC50 was 1.29 µM in data set [1]; greater than 5000 nM in data set [2]; 820 nM with P. falciparum strain 3D7; 1130 nM in data set [3] (strain CYTbQi (Dd2 parent)); 1600 nM in data set [4]. Besides, the “EC50 fold shift … Liver Stage EC50” value in data set [2] is given as greater than 6. In addition, the “Hepatocyte Toxicity” value with HepG2 was greater than 5 µM. For the same compound, the “EC50 fold shift … Hepatocyte Toxicity” value in the data set with HepG2 is recorded as greater than 6.

For the compound `OC(CNC1CCCCC1)Cn1c2ccccc2c2ccccc21` (stereo not shown) [MMV009063], the EC50 in data set [1] is 0.457 µM; in data set [2], greater than 5000 nM; in the data set with P. falciparum strain 3D7, 790 nM; in data set [3] (strain CYTbQi (Dd2 parent)) it was 257 nM; in data set [4] it was 537 nM. In addition, in data set [2], the “EC50 fold shift … Liver Stage EC50” value is recorded as greater than 6.3. In addition, the “Hepatocyte Toxicity” value with HepG2 was greater than 5 µM. In the data set with HepG2, the “EC50 fold shift … Hepatocyte Toxicity” value was greater than 6.3.

As to `COc1cc2cc(C(=O)Nc3ccccc3)c(N)nc2cc1OC` [MMV006767], the EC50 in data set [1] was 0.329 µM; in data set [2] it was greater than 50000 nM; with P. falciparum strain 3D7, 960 nM; in data set [3] (strain CYTbQi (Dd2 parent)), 1930 nM; in data set [4], 2870 nM. For the same compound, in the data set on HepG2, the “Hepatocyte Toxicity” value was greater than 50 µM.

`COc1ccc(NC(=O)N2CCCCN3[C@H](CN)[C@H](c4ccc(C#Cc5ccccc5)cc4)[C@@H]3C2)cc1` [BRD1095]: the EC50 in data set [1] was 0.00119 µM. In data set [2], the EC50 amounted to 82.6 nM and the “EC50 fold shift … Liver Stage EC50” value was determined as 2.07. Also, in the data set with P. falciparum strain 3D7, the EC50 was determined as 40 nM. Also, in data set [3] (DD2, CYTbQi strain), the EC50 stood at 18 nM. For the same compound, in the data set with HepG2, the “Hepatocyte Toxicity” value is greater than 50 µM, the “EC50 fold shift … Hepatocyte Toxicity” value was greater than 1250 and the “Liver Stage / Hepatocyte Toxicity” value was greater than 605.

In the case of `CN(C)CCCN(C)C(=O)C1Cc2cc(-c3ccccc3)ccc2N1S(=O)(=O)c1ccccc1` (stereo not shown) [MMV028895], the EC50 in data set [1] was 2.76 µM; in data set [3] (strain CYTbQi (Dd2 parent)) it was 740 nM; in data set [4], 253 nM.
